From PubChem BioAssay AID250 (DTP/NCI, 2004) come the findings set out here.

Several values for one entry are separate records, joined by “and”; a condition that tells them apart may be missing. Identical values can stand only once. Inconclusive results and toxic doses are left out.

The subject of this experiment is BDF1 mice, L1210 leukemia sc, survival T/C. Nature of the experiment: NCI In Vivo Anticancer Drug Screen. Data for tumor model L1210 Leukemia (subcutaneous) in B6D2F1 (BDF1) mice. To be noted: higher = longer survival. As for the experimental part: The antitumor activity of compounds was measured in mice bearing transplantable tumors. Survival or tumor size were measured and the results are expressed as the measurement made in the treated group (T) divided by the measurement made in the vehicle treated control group (C). The tumor model used in this assay is L1210 Leukemia (subcutaneous) in B6D2F1 (BDF1) mice

Where [1] appears, read: endpoint: median survival time, dose: 108.0 mg/kg/injection, schedule: Q01DX Z (sc), vehicle: methylcellulose (MC).
[2] abbreviates: endpoint: median survival time, dose: 180.0 mg/kg/injection, schedule: Q01DX Z (sc), vehicle: methylcellulose (MC).
Setting [3] is: endpoint: median survival time, dose: 300.0 mg/kg/injection, schedule: Q01DX Z (sc), vehicle: methylcellulose (MC).

On to `CCCC(=O)NC1=C(N2CC2)C(=O)C(NC(=O)CCC)=C(N2CC2)C1=O`, for which the T/C (endpoint: median survival time, dose: 1.8 mg/kg/injection, schedule: Q01DX Z (sc), vehicle: saline) is 100 % of control; the T/C (endpoint: median survival time, dose: 3.0 mg/kg/injection, schedule: Q01DX Z (sc), vehicle: saline) was 111 % of control; the T/C (endpoint: median survival time, dose: 8.4 mg/kg/injection, schedule: Q01DX Z (sc), vehicle: saline) is 183 % of control; the T/C (endpoint: median survival time, dose: 14.0 mg/kg/injection, schedule: Q01DX Z (sc), vehicle: saline) was 150 % of control; the T/C (endpoint: median survival time, dose: 23.0 mg/kg/injection, schedule: Q01DX Z (sc), vehicle: saline) is 122 % of control.

As to `CCCCCCOP(=O)(N1CC1)N1CC1`, the T/C (endpoint: median survival time, dose: 0.65 mg/kg/injection, schedule: Q01DX Z (sc), vehicle: saline) was 100 % of control and 110 % of control; the T/C (endpoint: median survival time, dose: 1.08 mg/kg/injection, schedule: Q01DX Z (sc), vehicle: saline) is 104 % of control and 110 % of control (2×); the T/C (endpoint: median survival time, dose: 23.0 mg/kg/injection, schedule: Q01DX001 (sc), vehicle: saline) was 150 % of control; the T/C (endpoint: median survival time, dose: 23.0 mg/kg/injection, schedule: Q## X Z (sc), vehicle: saline) was 170 % of control; the T/C (endpoint: median survival time, dose: 39.0 mg/kg/injection, schedule: Q01DX001 (sc), vehicle: saline) is 150 % of control; the T/C (endpoint: median survival time, dose: 39.0 mg/kg/injection, schedule: Q## X Z (sc), vehicle: saline) was 220 % of control. The T/C was 170 % of control (endpoint: median survival time, dose: 65.0 mg/kg/injection, schedule: Q01DX001 (sc), vehicle: saline); 160 % of control (endpoint: median survival time, dose: 65.0 mg/kg/injection, schedule: Q## X Z (sc), vehicle: saline); 160 % of control (endpoint: median survival time, dose: 108.0 mg/kg/injection, schedule: Q01DX001 (sc), vehicle: saline); 150 % of control (endpoint: median survival time, dose: 108.0 mg/kg/injection, schedule: Q## X Z (sc), vehicle: saline); 150 % of control (endpoint: median survival time, dose: 180.0 mg/kg/injection, schedule: Q01DX001 (sc), vehicle: saline).

As for `CCSc1ncnc2nc[nH]c12`, the T/C was 100 % of control (endpoint: median survival time, dose: 38.9 mg/kg/injection, schedule: Q01DX Z (sc), vehicle: methylcellulose (MC)); 100 % of control (endpoint: median survival time, dose: 64.8 mg/kg/injection, schedule: Q01DX Z (sc), vehicle: methylcellulose (MC)); 110 % of control under setting [1]; 100 % of control under setting [2]; 110 % of control under setting [3].

Turning to `O=C1CCC(N2C(=O)c3ccccc3C2=O)C(=O)N1` (stereo not given), the T/C is, setting by setting: (endpoint: median survival time, dose: 6.0 mg/kg/injection, schedule: Q01DX Z (sc), vehicle: methylcellulose (MC)) 100 % of control; (endpoint: median survival time, dose: 12.0 mg/kg/injection, schedule: Q01DX Z (sc), vehicle: methylcellulose (MC)) 100 % of control; (endpoint: median survival time, dose: 24.0 mg/kg/injection, schedule: Q01DX Z (sc), vehicle: methylcellulose (MC)) 100 % of control; (endpoint: median survival time, dose: 48.0 mg/kg/injection, schedule: Q01DX Z (sc), vehicle: methylcellulose (MC)) 100 % of control; (endpoint: median survival time, dose: 65.0 mg/kg/injection, schedule: Q01DX Z (sc), vehicle: methylcellulose (MC)) 100 % of control; under setting [1], 94 % of control. The T/C was 88 % of control under setting [2]; 100 % of control under setting [3]; 100 % of control (endpoint: median survival time, dose: 500.0 mg/kg/injection, schedule: Q01DX Z (sc), vehicle: methylcellulose (MC)).

As for `CN(Cc1cnc2nc(N)nc(N)c2n1)c1cccc(C(=O)NC(CCC(=O)O)C(=O)O)c1` (stereo not given), the T/C is 111 % of control (endpoint: mean survival time, dose: 1.0 mg/kg/injection, schedule: Q01DX009 (ip), vehicle: sodium bicarbonate); 107 % of control (endpoint: mean survival time, dose: 2.0 mg/kg/injection, schedule: Q01DX009 (ip), vehicle: sodium bicarbonate); 111 % of control (endpoint: mean survival time, dose: 4.0 mg/kg/injection, schedule: Q01DX009 (ip), vehicle: sodium bicarbonate); 113 % of control (endpoint: mean survival time, dose: 4.0 mg/kg/injection, schedule: Q04DX003 (ip), vehicle: sodium bicarbonate); 111 % of control (endpoint: mean survival time, dose: 8.0 mg/kg/injection, schedule: Q01DX009 (ip), vehicle: sodium bicarbonate); 111 % of control (endpoint: mean survival time, dose: 8.0 mg/kg/injection, schedule: Q04DX003 (ip), vehicle: sodium bicarbonate). For the same compound, the T/C (endpoint: mean survival time, dose: 16.0 mg/kg/injection, schedule: Q01DX009 (ip), vehicle: sodium bicarbonate) is 114 % of control; the T/C (endpoint: mean survival time, dose: 16.0 mg/kg/injection, schedule: Q04DX003 (ip), vehicle: sodium bicarbonate) was 108 % of control; the T/C (endpoint: mean survival time, dose: 32.0 mg/kg/injection, schedule: Q04DX003 (ip), vehicle: sodium bicarbonate) was 108 % of control; the T/C (endpoint: mean survival time, dose: 64.0 mg/kg/injection, schedule: Q04DX003 (ip), vehicle: sodium bicarbonate) is 119 % of control.
